Measured values reported in ChEMBL document CHEMBL1201862, “PubChem BioAssay data set” (2004).
Active and inactive are the calls of the source.

Assays:
cells [1] = assay type: functional, cell-based
[2] = target: Arf-GAP with SH3 domain, ANK repeat and PH domain-containing protein 1 (Homo sapiens, UniProt Q9ULH1); assay type: functional;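 note: biochemical fluorescence polarization dose–response screen measuring inhibition of ASAP1; ASAP1 GAP domain stimulating GTP hydrolysis by truncated human ARF1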
Chain of Arf-GAP with SH3 domain, ANK repeat and PH domain-containing protein 1 (Q9ULH1 whole entry, the tested form may be a part): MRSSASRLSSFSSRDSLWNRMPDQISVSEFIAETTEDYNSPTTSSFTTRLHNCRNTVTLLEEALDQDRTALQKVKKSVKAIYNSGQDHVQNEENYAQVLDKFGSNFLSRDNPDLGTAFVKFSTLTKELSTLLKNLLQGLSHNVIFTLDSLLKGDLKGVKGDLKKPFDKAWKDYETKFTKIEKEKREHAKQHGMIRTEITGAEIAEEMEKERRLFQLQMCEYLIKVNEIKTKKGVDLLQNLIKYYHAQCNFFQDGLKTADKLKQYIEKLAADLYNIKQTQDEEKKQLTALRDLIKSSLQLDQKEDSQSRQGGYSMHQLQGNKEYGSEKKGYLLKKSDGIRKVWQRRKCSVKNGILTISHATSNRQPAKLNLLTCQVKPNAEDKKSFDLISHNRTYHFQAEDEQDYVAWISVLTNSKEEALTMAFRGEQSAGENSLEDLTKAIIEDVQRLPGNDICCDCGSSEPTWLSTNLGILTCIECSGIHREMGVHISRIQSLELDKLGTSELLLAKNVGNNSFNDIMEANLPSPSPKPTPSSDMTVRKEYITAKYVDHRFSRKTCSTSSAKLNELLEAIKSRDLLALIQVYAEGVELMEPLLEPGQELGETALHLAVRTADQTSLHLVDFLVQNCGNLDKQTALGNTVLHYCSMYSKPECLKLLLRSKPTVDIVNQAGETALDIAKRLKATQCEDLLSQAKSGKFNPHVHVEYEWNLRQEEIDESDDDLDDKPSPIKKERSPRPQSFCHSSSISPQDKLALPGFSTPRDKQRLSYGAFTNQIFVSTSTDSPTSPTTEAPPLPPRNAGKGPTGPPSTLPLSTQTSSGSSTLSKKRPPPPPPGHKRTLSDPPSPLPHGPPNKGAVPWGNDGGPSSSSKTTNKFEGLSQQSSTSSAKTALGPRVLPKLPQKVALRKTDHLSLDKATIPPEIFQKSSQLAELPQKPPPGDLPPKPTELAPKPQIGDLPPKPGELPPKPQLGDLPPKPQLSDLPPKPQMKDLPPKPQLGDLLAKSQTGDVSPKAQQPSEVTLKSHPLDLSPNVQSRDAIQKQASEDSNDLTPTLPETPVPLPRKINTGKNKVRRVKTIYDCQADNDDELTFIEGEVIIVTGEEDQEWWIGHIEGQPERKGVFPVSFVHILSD

cells [3] = assay type: functional, cell-based; remark: listed apart in the source
[4] = target: ADP-ribosylation factor GTPase-activating protein 1 (Rattus norvegicus, UniProt Q62848); experiment: Fluorescence polarization-based biochemical high throughput dose response screening assay to identify inhibitors of ADP-ribosylation factor GTPase activating protein 1 (ARFGAP1).; assay type: functional
Chain of ADP-ribosylation factor GTPase-activating protein 1 (Q62848 whole entry): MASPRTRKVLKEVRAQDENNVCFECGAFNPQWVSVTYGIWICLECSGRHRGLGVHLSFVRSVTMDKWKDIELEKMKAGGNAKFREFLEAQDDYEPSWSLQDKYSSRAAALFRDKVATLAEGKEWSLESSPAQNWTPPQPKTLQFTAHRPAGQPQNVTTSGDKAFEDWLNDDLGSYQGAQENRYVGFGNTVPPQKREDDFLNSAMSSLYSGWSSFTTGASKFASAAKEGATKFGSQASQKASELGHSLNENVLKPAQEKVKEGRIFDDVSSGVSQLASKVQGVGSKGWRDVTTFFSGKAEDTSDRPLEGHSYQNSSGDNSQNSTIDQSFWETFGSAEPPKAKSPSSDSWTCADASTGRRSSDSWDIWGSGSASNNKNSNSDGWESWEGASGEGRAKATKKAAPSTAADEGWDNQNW

[5] = viability of PTEN-deleted HCT116 cells – cell-based, HCT116 PTEN knockout, dose response (AID 1047); assay type: functional;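 note: HCT116 colon tumor cells with PTEN knocked out; cells exposed to compound for 60 hours before readout; potency for loss of cell viability measured by luminescence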
[6] = target: 72 kDa type IV collagenase (Homo sapiens, UniProt P08253); experiment: Dose Response validation of uHTS RPN11 inhibitor hits using a MMP-2 Fluorescence assay.; assay type: functional
Chain of 72 kDa type IV collagenase (P08253 whole entry): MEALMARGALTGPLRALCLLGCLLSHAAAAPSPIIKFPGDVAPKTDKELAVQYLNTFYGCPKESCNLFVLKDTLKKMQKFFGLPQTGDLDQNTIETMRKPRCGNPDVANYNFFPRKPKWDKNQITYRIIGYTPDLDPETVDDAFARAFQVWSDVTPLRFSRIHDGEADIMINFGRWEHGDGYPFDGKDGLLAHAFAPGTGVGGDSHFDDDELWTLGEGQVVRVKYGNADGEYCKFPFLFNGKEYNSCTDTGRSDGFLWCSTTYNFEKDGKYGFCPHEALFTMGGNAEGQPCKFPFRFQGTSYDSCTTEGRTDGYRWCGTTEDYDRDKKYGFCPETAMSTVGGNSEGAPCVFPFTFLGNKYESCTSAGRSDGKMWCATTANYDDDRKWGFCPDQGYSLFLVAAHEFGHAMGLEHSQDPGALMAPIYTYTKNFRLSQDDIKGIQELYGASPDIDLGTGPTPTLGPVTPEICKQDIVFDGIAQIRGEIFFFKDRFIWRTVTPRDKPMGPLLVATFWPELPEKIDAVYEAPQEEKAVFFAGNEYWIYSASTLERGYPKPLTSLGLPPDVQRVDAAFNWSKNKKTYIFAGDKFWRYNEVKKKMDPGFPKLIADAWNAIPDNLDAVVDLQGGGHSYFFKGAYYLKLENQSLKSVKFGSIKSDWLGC

[7] = target: 26S proteasome non-ATPase regulatory subunit 14 (Homo sapiens, UniProt O00487); experiment: inhibition of proteasome subunit RPN11 – biochemical, fluorescence polarization, uHTS hits, confirmation (AID 602368); assay type: functional
Chain of 26S proteasome non-ATPase regulatory subunit 14 (O00487 whole entry): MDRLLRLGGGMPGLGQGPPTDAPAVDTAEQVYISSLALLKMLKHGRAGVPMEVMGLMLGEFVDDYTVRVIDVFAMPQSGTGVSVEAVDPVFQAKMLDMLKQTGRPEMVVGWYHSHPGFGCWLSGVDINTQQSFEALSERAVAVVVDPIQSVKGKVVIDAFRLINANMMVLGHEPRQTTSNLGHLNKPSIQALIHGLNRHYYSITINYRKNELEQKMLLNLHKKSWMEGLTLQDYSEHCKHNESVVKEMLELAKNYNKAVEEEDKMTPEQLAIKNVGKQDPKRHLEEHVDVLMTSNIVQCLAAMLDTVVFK

Prothrombin = Prothrombin (Bos taurus, UniProt P00735); experiment: thrombin protease inhibitors – biochemical, fluorescence polarization, uHTS hits, dose response (AID 602369); assay type: functional
[8] = viability of HCT116 lacking mutant beta-catenin – cell-based, human colon tumor, dose response (AID 1045); assay type: functional;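 note: HCT116 colon tumor cells with beta catenin knocked out; cells exposed to compound for 60 hours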
[9] = target: T1, Methionyl-tRNA synthetase, putative (Trypanosoma brucei brucei, UniProt Q38C91); assay type: functional, Trypanosoma brucei brucei strain 927/4 GUTat10.1
T1 sequence (Q38C91 whole entry): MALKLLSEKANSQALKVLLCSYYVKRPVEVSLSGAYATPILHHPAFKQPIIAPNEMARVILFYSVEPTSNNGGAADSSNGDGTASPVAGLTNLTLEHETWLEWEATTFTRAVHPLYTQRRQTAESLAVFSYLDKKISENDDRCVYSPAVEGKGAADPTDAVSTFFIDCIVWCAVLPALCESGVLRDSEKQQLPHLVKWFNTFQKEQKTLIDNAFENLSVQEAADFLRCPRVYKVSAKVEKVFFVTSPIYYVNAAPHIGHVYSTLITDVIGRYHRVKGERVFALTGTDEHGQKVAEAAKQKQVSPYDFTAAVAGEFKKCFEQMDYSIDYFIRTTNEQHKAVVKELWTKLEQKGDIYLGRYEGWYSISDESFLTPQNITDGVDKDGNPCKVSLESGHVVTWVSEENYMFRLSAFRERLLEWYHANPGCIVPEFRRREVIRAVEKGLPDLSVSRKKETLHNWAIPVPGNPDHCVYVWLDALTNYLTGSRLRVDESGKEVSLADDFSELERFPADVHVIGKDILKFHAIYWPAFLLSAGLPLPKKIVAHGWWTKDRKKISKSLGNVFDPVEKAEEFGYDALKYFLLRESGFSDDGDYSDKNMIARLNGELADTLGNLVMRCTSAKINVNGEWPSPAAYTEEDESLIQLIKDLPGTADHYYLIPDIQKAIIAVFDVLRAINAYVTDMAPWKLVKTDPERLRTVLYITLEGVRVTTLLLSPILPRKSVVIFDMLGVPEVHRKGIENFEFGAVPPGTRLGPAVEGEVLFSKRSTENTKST

[10] = target: T1, Methionyl-tRNA synthetase, putative; assay type: functional, Trypanosoma brucei brucei strain 927/4 GUTat10.1; remark: listed apart in the source
[11] = Trypanosoma cruzi growth suppression in host cells – NIH3T3 host cells, beta-gal luminescence, confirmation (AID 2044); assay type: functional, cell-based;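 note: intracellular parasites grown in NIH/3T3 mouse fibroblasts as host cells; luminescent beta-galactosidase reporter signal from transgenic T. cruzi replicating inside host cells; inhibitors lower the luminescence signal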
HEK293 [12] = experiment: cells; assay type: functional, cell-based; details: Homo sapiens
HEK293 [13] = experiment: inhibition of NOD1-driven NF-kB reporter – cell-based, luminescence, uHTS, primary screen (AID 1578); assay type: functional; details: Homo sapiens
HEK293 [14] = experiment: cells; assay type: functional, cell-based; details: Homo sapiens; remark: listed apart in the source
[15] = NIH3T3 cell viability loss – ATP luminescence, mouse fibroblasts, counter-screen, dose response (AID 2010); assay type: functional, cell-based;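 note: cells exposed to compound for about 90 hours before reading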
HEK293 [16] = experiment: NOD2 signaling inhibitors in MDP-stimulated cells, cell-based, uHTS, luminescence (AID 2001); assay type: functional; details: Homo sapiens
[17] = Counterscreen for inhibitors of Trypanosoma brucei methionyl tRNA synthetase (MetRS): Luminescence-based cell-based high throughput dose response assay to identify compounds that are cytotoxic to Jurkat human T lymphocyte cells.; assay type: functional
Beta-galactosidase = Beta-galactosidase (Escherichia coli, UniProt Q8VNN2); experiment: Dose response counterscreen for EBI2 assay utilizing the enzyme, b-galactosidase.; assay type: functional
Chain of Beta-galactosidase (Q8VNN2 whole entry): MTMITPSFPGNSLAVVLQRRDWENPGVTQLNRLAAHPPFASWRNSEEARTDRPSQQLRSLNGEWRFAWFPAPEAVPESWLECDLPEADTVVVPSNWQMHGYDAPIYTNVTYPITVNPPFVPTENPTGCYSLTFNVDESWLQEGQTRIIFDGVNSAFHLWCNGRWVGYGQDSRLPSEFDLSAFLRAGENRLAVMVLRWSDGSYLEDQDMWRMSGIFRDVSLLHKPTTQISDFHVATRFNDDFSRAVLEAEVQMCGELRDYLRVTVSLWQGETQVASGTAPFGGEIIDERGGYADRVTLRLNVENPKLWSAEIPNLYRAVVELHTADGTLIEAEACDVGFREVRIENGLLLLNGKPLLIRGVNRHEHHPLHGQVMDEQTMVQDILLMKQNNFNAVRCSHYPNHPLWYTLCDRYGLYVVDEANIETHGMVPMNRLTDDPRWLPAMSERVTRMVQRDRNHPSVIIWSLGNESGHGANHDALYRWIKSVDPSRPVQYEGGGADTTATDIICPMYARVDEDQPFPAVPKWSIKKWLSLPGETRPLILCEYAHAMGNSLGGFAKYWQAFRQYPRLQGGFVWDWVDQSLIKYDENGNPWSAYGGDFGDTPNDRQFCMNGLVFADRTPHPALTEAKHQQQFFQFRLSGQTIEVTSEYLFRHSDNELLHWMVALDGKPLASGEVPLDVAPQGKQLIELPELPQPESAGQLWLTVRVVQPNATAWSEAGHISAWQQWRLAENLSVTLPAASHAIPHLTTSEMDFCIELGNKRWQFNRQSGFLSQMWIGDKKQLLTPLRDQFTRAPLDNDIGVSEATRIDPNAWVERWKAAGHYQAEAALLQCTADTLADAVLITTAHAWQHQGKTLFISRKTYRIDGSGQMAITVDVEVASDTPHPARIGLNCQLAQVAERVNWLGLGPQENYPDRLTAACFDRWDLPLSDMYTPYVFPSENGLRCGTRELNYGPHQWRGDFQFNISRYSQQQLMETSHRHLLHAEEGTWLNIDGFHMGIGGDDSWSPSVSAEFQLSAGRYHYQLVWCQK

With `Cc1ccc2nc(SCC(=O)N3CCCCCC3)nc(=O)n2c1` the EC50 (cells [1]) was > 350 µM (not active), the IC50 [2] was 30.7 µM (inactive) and the EC50 (cells [3]) was > 350 µM (not active). For the same compound, the IC50 [4] was 23.1 µM (inactive).
In the case of `Nc1nc(SCc2ccc(Cl)cc2Cl)nc2nc3c(cc12)CCCC3`, the EC50 [5] is reported as 14.4 µM (active), the IC50 [2] is reported as 17.7 µM (inactive) and the IC50 [6] is reported as > 100 µM (inactive). The IC50 [7] was 41.4 µM (active), the IC50 (Prothrombin) was 39.2 µM (active) and the EC50 [8] was 13.3 µM (active). The IC50 [4] was 23.8 µM (inactive).
With `COc1ccccc1NS(=O)(=O)c1cccc(NC(=O)Nc2ccc(Cl)cc2)c1` the IC50 [9] was 5.53 µM (active), the IC50 [10] was 39.5 µM (inactive) and the EC50 [11] was 1.8 µM (active). The IC50 (HEK293 [12]) was 6.59 µM (active), the EC50 (HEK293 [13]) was > 20 µM (inactive) and the IC50 (HEK293 [14]) was 7.01 µM (active). For the same compound, the EC50 [15] was > 60 µM (not active), the IC50 (HEK293 [16]) was 5.81 µM (inactive) and the IC50 [17] was 65.3 µM (inactive).
In the case of `CCOC(=O)C1CCN(C(=O)c2cc3c(ccc4ccccc43)o2)CC1`, the IC50 (Beta-galactosidase) is reported as > 80 µM (inactive).
